The values that follow come from patent US20050209256A1, “Novel beta-turn mimetics as calcitonin gene related peptide receptor antagonists” (priority 2004, published 2005).

The target of this test is T1, human CGRP receptor (Homo sapiens, UniProt O60894+Q16602).
T1 construct: SK-N-MC cells that endogenously express the human CGRP receptor; endogenous in cells; host or cells: SK-N-MC cells (membrane homogenates)
Description: Radioligand binding assay, [125I]-CGRP competition on SK-N-MC cell homogenates. The note with it: Binding data, [125I]-CGRP 40 pM, room temperature. As to the method:
Tissue culture. SK-N-MC cells were grown at 37° C. in 5% CO2 as a monolayer in medium consisting of MEM with Earle's salts and L-glutamine (Gibco) supplemented with 10% fetal bovine serum (Gibco).
Radioligand binding assays. Cells were rinsed twice with phosphate-buffered saline (155 mM NaCl, 3.3 mM Na2HPO4, 1.1 mM KH2PO4, pH 7.4), and incubated for 5-10 min. at 4° C. in hypotonic lysis buffer consisting of 10 mM Tris (pH 7.4) and 5 mM EDTA. Cells were transferred from plates to polypropylene tubes (16×100 mm), homogenized and centrifuged at 32,000×g for 30 min. Pellets were resuspended in buffer consisting of 50 mM Tris (pH 7.4) and 1 mM EDTA, homogenized, and centrifuged again at 32,000×g for 30 min. Pellets were resuspended in 100 mM Tris-Cl pH 7.5, 10 mM MgCl2, 0.1% mammalian protease inhibitor cocktail (Sigma) and stored at −80° C. until needed. On the day of an experiment, homogenates were thawed and homogenized again. Binding of [^125I]-CGRP (NEN) was carried out in buffer containing 50 mM Tris-Cl pH 7.5, 5 mM MgCl2, 0.5% BSA. Homogenates (3.5 μg protein/well) were incubated with competitor compounds (solubilized in 100% DMSO at 100× their final assay concentrations) for one hour at room temperature. Then [^125I]-CGRP was added (40 pM final concentration) and the reaction incubated for one additional hour at room temperature. Assays were stopped by addition of cold wash buffer (20 mM Tris-Cl pH 7.5, 0.1% BSA) immediately followed by filtration over glass fiber filters (Whatman GF/B) previously soaked in 0.5% PEI. Non-specific binding was defined with 100 nM CGRP.

`CC(=O)c1ccc(NC(=O)N2CCC(=O)N3[C@@H]2CN(CCc2cccc(F)c2)C(=O)[C@@H]3CC[S+](C)[O-])cc1` (mixture of isomers) [Compound 42, (6S,9aS)-8-[2-(3-Fluoro-phenyl)-ethyl]-6-(2-methanesulfinyl-ethyl)-4,7-dioxo-hexahydro-pyrazino [1,2-a]pyrimidine-1-carboxylic acid (4-acetyl-phenyl)-amide]: the half-inhibitory concentration (IC50) amounted to 778 nM. Take `CCSCC1C(=O)N(CCc2cccc(F)c2)C[C@@H]2N(C(=O)Nc3ccc(C(C)=O)cc3)CCC(=O)N12` (stereo in doubt) [Compound 35, (6S,9aS)-6-Ethylsulfanylmethyl-8-[2-(3-fluoro-phenyl)-ethyl]-4,7-dioxo-hexahydro-pyrazino[1,2-a]pyrimidine-1-carboxylic acid (4-acetyl-phenyl)-amide]: the half-maximal inhibitory concentration (IC50) was 244 nM. This IC50 lies about 3.2-fold lower than the previous one. For the molecule `CSCC1C(=O)N(CCc2cccc(F)c2)C[C@@H]2N(C(=O)Nc3ccc(C(C)=O)cc3)CCC(=O)N12` (stereo in doubt) [Compound 37, (6S,9aS)-8-[2-(3-Fluoro-phenyl)-ethyl]-6-methylsulfanylmethyl-4,7-dioxo-hexahydro-pyrazino[1,2-a]pyrimidine-1-carboxylic acid (4-acetyl-phenyl)-amide], the concentration for half-maximal inhibition (IC50) was found to be 704 nM. The value for `CC(=O)c1ccc(NC(=O)N2CCC(=O)N3C(CSCc4ccccc4)C(=O)N(CCc4cccc(F)c4)C[C@H]23)cc1` (stereo in doubt) [Compound 41, (6S,9aS)-6-Benzylsulfanylmethyl-8-[2-(3-fluoro-phenyl)-ethyl]-4,7-dioxo-hexahydro-pyrazino [1,2-a]pyrimidine-1-carboxylic acid (4-acetyl-phenyl)-amide] was 237 nM; that for `CC(=O)c1ccc(NC(=O)N2CCC(=O)N3C(C[S+]([O-])Cc4ccccc4)C(=O)N(CCc4cccc(F)c4)C[C@H]23)cc1` (stereo in doubt) [Compound 44, (6S,9aS)-8-[2-(3-Fluoro-phenyl)-ethyl]-4,7-dioxo-6-phenylmethanesulfinylmethyl-hexahydro-pyrazino[1,2-a]pyrimidine-1-carboxylic acid (4-acetyl-phenyl)-amide] was 3440 nM; that for `CC(=O)c1ccc(NC(=O)N2CCC(=O)N3C(CS(=O)(=O)Cc4ccccc4)C(=O)N(CCc4cccc(F)c4)C[C@H]23)cc1` (stereo in doubt) [Compound 45, (6S,9aS)-8-[2-(3-Fluoro-phenyl)-ethyl]-4,7-dioxo-6-phenylmethanesulfonylmethyl-hexahydro-pyrazino[1,2-a]pyrimidine-1-carboxylic acid (4-acetyl-phenyl)-amide] was 1940 nM. As to `CC[C@H](C)[C@H]1C(=O)N(CCc2cccc(F)c2)C[C@@H]2N(C(=O)Nc3ccc(C(C)=O)cc3)CCC(=O)N12` (stereo in doubt) [Compound 47, (6S,9aS)-6-(1R-Methyl-propyl)-8-[2-(3-fluoro-phenyl)-ethyl]-(S,S)-4,7-dioxo-hexahydro-pyrazino[1,2-a]pyrimidine-1-carboxylic acid (4-acetyl-phenyl)-amide], the IC50 came to 192 nM. `CC(=O)c1ccc(NC(=O)N2CCC(=O)N3[C@@H](C4CCCCC4)C(=O)N(CCc4ccccc4)C[C@H]23)cc1` [Compound 1, (6S,9aS)-6-Cyclohexyl-4,7-dioxo-8-phenethyl-hexahydro-pyrazino[1,2-a]pyrimidine-1-carboxylic acid (4-acetyl-phenyl)-amide] registered a concentration for half-maximal inhibition (IC50) of 80 nM. As for `CS(=O)(=O)c1ccc(NC(=O)N2CCC(=O)N3[C@@H](C4CCCCC4)C(=O)N(CCc4ccccc4)C[C@H]23)cc1` [Compound 17, (6S,9aS)-6-Cyclohexyl-4,7-dioxo-8-phenethyl-hexahydro-pyrazino[1,2a]pyrimidine-1-carboxylic acid (4-methanesulfonyl-phenyl)-amide], the figure is 417 nM; as for `C[S+]([O-])c1ccc(NC(=O)N2CCC(=O)N3[C@@H](C4CCCCC4)C(=O)N(CCc4ccccc4)C[C@H]23)cc1` (stereo partly drawn) [Compound 18, (6S,9aS)-6-Cyclohexyl-4,7-dioxo-8-phenethyl-hexahydro-pyrazino[1,2a]pyrimidine-1-carboxylic acid (4-methanesulfinyl-phenyl)-amide], 293 nM; as for `CSc1ccc(NC(=O)N2CCC(=O)N3[C@@H](C4CCCCC4)C(=O)N(CCc4ccccc4)C[C@H]23)cc1` [Compound 19, (6S,9aS)-6-Cyclohexyl-4,7-dioxo-8-phenethyl-hexahydro-pyrazino[1,2-a]pyrimidine-1-carboxylic acid (4-methylsulfanyl-phenyl)-amide], 8000 nM. As for `CC(=O)c1ccc(NC(=O)N2CCC(=O)N3[C@@H](C(C)C)C(=O)N(CCc4cccc(F)c4)C[C@H]23)cc1` [Compound 20, (6S,9aS)-8-[2-(3-Fluoro-phenyl)-ethyl]-6-isopropyl-4,7-dioxo-hexahydro-pyrazino[1,2-a]pyrimidine-1-carboxylic acid (4-acetyl-phenyl)-amide], the figure is 907 nM. The value for `CC[C@H](C)[C@H]1C(=O)N(CCc2cccc(F)c2)C[C@@H]2N(C(=O)Nc3ccc(C(C)=O)cc3)CCC(=O)N12` [Compound 21, (6S,9aS)-6-(1S-Methyl-propyl)-8-[2-(3-fluoro-phenyl)-ethyl]-4,7-dioxo-hexahydro-pyrazino[1,2-a]pyrimidine-1-carboxylic acid (4-acetyl-phenyl)-amide] was 233 nM; that for `CC(=O)c1ccc(NC(=O)N2CCC(=O)N3[C@@H]2CN(CCc2cccc(F)c2)C(=O)[C@@H]3Cc2ccccc2)cc1` [Compound 22, (6S,9aS)-6-Benzyl-8-[2-(3-fluoro-phenyl)-ethyl]-4,7-dioxo-hexahydro-pyrazino[1,2-a]pyrimidine-1-carboxylic acid (4-acetyl-phenyl)-amide] was 2190 nM; that for `CC(=O)c1ccc(NC(=O)N2CCC(=O)N3[C@@H]2CN(CCc2cccc(F)c2)C(=O)[C@@H]3CC(C)C)cc1` [Compound 23, (6S,9aS)-8-[2-(3-Fluoro-phenyl)-ethyl]-6-isobutyl-4,7-dioxo-hexahydro-pyrazino[1,2-a]pyrimidine-1-carboxylic acid (4-acetyl-phenyl)-amide] was 184 nM. In the case of `CSCC[C@H]1C(=O)N(CCc2cccc(F)c2)C[C@@H]2N(C(=O)Nc3ccc(C(C)=O)cc3)CCC(=O)N21` [Compound 24, (6S,9aS)-8-[2-(3-Fluoro-phenyl)-ethyl]-6-(2-methylsulfanyl-ethyl)-4,7-dioxo-hexahydro-pyrazino[1,2-a]pyrimidine-1-carboxylic acid (4-acetyl-phenyl)-amide], the 50% inhibitory concentration (IC50) was determined as 213 nM. The value for `CC(=O)c1ccc(NC(=O)N2CCC(=O)N3[C@@H]2CN(CCc2cccc(F)c2)C(=O)[C@@H]3C)cc1` [Compound 25, (6S,9aS)-8-[2-(3-Fluoro-phenyl)-ethyl]-6-methyl-4,7-dioxo-hexahydro-pyrazino[1,2-a]pyrimidine-1-carboxylic acid (4-acetyl-phenyl)-amide] was 30000 nM; that for `CCCC[C@H]1C(=O)N(CCc2cccc(F)c2)C[C@@H]2N(C(=O)Nc3ccc(C(C)=O)cc3)CCC(=O)N21` [Compound 26, (6S,9aS)-6-Butyl-8-[2-(3-fluoro-phenyl)-ethyl]-4,7-dioxo-hexahydro-pyrazino[1,2-a]pyrimidine-1-carboxylic acid (4-acetyl-phenyl)-amide] was 117 nM; that for `CC(=O)c1ccc(NC(=O)N2CCC(=O)N3[C@@H]2CN(CCc2cccc(F)c2)C(=O)[C@@H]3Cc2ccc([N+](=O)[O-])cc2)cc1` [Compound 27, (6S,9aS)-8-[2-(3-Fluoro-phenyl)-ethyl]-6-(4-nitro-benzyl)-4,7-dioxo-hexahydro-pyrazino[1,2-a]pyrimidine-1-carboxylic acid (4-acetyl-phenyl)-amide] was 1330 nM. `CC(=O)c1ccc(NC(=O)N2CCC(=O)N3[C@@H]2CN(CCc2cccc(F)c2)C(=O)[C@@H]3CC2CCCCC2)cc1` [Compound 28, (6S,9aS)-6-Cyclohexylmethyl-8-[2-(3-fluoro-phenyl)-ethyl]-4,7-dioxo-hexahydro-pyrazino[1,2-a]pyrimidine-1-carboxylic acid (4-acetyl-phenyl)-amide]: the half-inhibitory concentration (IC50) is 188 nM.

`CC(=O)c1ccc(NC(=O)N2CCC(=O)N3[C@@H]2CN(CCc2cccc(F)c2)C(=O)[C@@H]3CC(=O)OCc2ccccc2)cc1` [Compound 30, {1-(4-Acetyl-phenylcarbamoyl)-(6S,9aS)-8-[2-(3-fluoro-phenyl)-ethyl]-4,7-dioxo-octahydro-pyrazino [1,2-a]pyrimidin-6-yl}-acetic acid benzyl ester]: the IC50 was found to be 2210 nM.

As to `CC(=O)c1ccc(NC(=O)N2CCC(=O)N3[C@@H]2CN(CCc2cccc(F)c2)C(=O)[C@@H]3CCCCNC(=O)OCc2ccccc2)cc1` [Compound 31, (4-{1-(4-Acetyl-phenylcarbamoyl)-(6S,9aS)-8-[2-(3-fluoro-phenyl)-ethyl]-4,7-dioxo-octahydro-pyrazino[1,2-a]pyrimidin-6-yl}-butyl)-carbamic acid benzyl ester], the 50% inhibitory concentration (IC50) was found to be 1050 nM.

As a reminder, the IC50 is the concentration that inhibits the measured activity by half.
